pIC50: −log10 of the molar value.
Test system: IL-12
Experiment: Human in vitro assay: inhibition of IL-12 production in IFNγ/LPS- or IFNγ/SAC-stimulated human PBMC or THP-1 cells (ELISA)
Type: cell-based
Details: read-out: IC50 Range (representative in vitro IC50 data)
Method in brief: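 PBMC (5×10^5 cells/well) primed with IFNγ 30 U/mL for 22 h then LPS 1 μg/mL, or IFNγ 100 U/mL then SAC 0.01%; THP-1 primed with IFNγ 100 U/mL for 22 h then SAC 0.025%, with compound in 0.25% DMSO. Supernatant IL-12 p70/p40 measured by sandwich ELISA after 18 h; IC50 derived; viability by MTS.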

Row | pIC50 | SMILES
1 | > 6.00 | CN(C)c1cccc(NC(=O)c2cc(OCCO)nc(N3CCOCC3)n2)c1 [Compound 309, 6-(2-Hydroxy-ethoxy)-2-morpholin-4-yl-pyrimidine-4-carboxylic acid (3-dimethylamino-phenyl)-amide]
2 | ≤ 6.00 | Cc1[nH]c2ccc(NC(=O)c3cc(OCCS(C)(=O)=O)nc(N4CCOCC4)n3)cc2c1C [Compound 249, N-(2,3-dimethyl-1H-indol-5-yl)-6-(2-(methylsulfonyl)ethoxy)-2-morpholinopyrimidine-4-carboxamide]
3 | > 6.00 | Cc1cccc(NNC(=O)c2cc(N3CCOCC3)nc(OCCN3CCOCC3)n2)c1 [Compound 80, 6-Morpholin-4-yl-2-(2-morpholin-4-yl-ethoxy)-pyrimidine-4-carboxylic acid N′-m-tolyl-hydrazide]
4 | > 6.00 | Cc1cc(NC(=O)Nc2cc(OCCN3CCOCC3)nc(N3CCOCC3)n2)ccc1C(C)C [Compound 329, 1-(4-Isopropyl-3-methyl-phenyl)-3-[2-morpholin-4-yl-6-(2-morpholin-4-yl-ethoxy)-pyrimidin-4-yl]-urea]
5 | > 6.00 | COC(=O)NCCOc1cc(C(=O)Nc2ccc3[nH]c(C)c(C)c3c2)nc(N2CCOCC2)n1 [Compound 294, {2-[6-(2,3-Dimethyl-1H-indol-5-ylcarbamoyl)-2-morpholin-4-yl-pyrimidin-4-yloxy]-ethyl}-carbamic acid methyl ester]
6 | > 6.00 | CCN(C)c1cccc(NC(=O)c2cc(OCCN3CCOCC3)nc(N3CCOCC3)n2)c1 [Compound 312, 2-Morpholin-4-yl-6-(2-morpholin-4-yl-ethoxy)-pyrimidine-4-carboxylic acid [3-(ethyl-methyl-amino)-phenyl]-amide]
7 | > 6.00 | Cc1ccc(NC(=O)c2cc(OCCN3CCOCC3)nc(N3CCOCC3)n2)cc1C [Compound 23, 2-Morpholin-4-yl-6-(2-morpholin-4-yl-ethoxy)-pyrimidine-4-carboxylic acid (3,4-dimethyl-phenyl)-amide]
8 | ≤ 6.00 | Cc1cc(NC(=O)c2cc(OCCN3CCOCC3)nc(N3CCOCC3)n2)no1 [Compound 48, 2-Morpholin-4-yl-6-(2-morpholin-4-yl-ethoxy)-pyrimidine-4-carboxylic acid (5-methyl-isoxazol-3-yl)-amide]
9 | > 6.00 | CN1C(=O)C(C)(C)c2cc(NC(=O)c3cc(OCCN4CCOCC4)nc(N4CCOCC4)n3)ccc21 [Compound 219, 2-morpholino-6-(2-morpholinoethoxy)-N-(1,3,3-trimethyl-2-oxoindolin-5-yl)pyrimidine-4-carboxamide]
10 | > 6.00 | Cc1[nH]c2ccc(NC(=O)Nc3cc(N4CCN(c5ccccn5)CC4)nc(N4CCOCC4)n3)cc2c1C [Compound 268, 1-(2,3-dimethyl-1H-indol-5-yl)-3-(2-morpholino-6-(4-(pyridin-2-yl)piperazin-1-yl)pyrimidin-4-yl)urea]
11 | ≤ 6.00 | O=C(Nc1ccc2ccccc2c1)Nc1cc(N2CCOCC2)nc(OCCN2CCOCC2)n1 [Compound 124, 1-[6-Morpholin-4-yl-2-(2-morpholin-4-yl-ethoxy)-pyrimidin-4-yl]-3-naphthalen-2-yl-urea]
12 | ≤ 6.00 | COCCN(C)c1cc(C(=O)Nc2cccc(OC(F)(F)F)c2)nc(N2CCOCC2)n1 [Compound 244, 6-[(2-Methoxy-ethyl)-methyl-amino]-2-morpholin-4-yl-pyrimidine-4-carboxylic acid (3-trifluoromethoxy-phenyl)-amide]
13 | ≤ 6.00 | CCN(CC)C(=O)Nc1cccc(NC(=O)c2cc(OCCN3CCOCC3)nc(N3CCOCC3)n2)c1 [Compound 198, N-(3-(3,3-diethylureido)phenyl)-2-morpholino-6-(2-morpholinoethoxy)pyrimidine-4-carboxamide]
14 | > 6.00 | Cc1cccc(NNC(=O)c2cc(N3CCOCC3)nc(OCCc3ccccn3)n2)c1 [Compound 78, 6-Morpholin-4-yl-2-(2-pyridin-2-yl-ethoxy)-pyrimidine-4-carboxylic acid N′-m-tolyl-hydrazide]
15 | > 6.00 | Cc1[nH]c2ccc(NC(=O)c3cc(OCCO)nc(N4CCOCC4)n3)cc2c1C [Compound 307, 6-(2-Hydroxy-ethoxy)-2-morpholin-4-yl-pyrimidine-4-carboxylic acid (2,3-dimethyl-1H-indol-5-yl)-amide]
16 | > 6.00 | CC(=O)N1CCN(c2cc(C(=O)Nc3ccc4[nH]cc(C)c4c3)nc(N3CCOCC3)n2)CC1 [Compound 261, 6-(4-acetylpiperazin-1-yl)-N-(3-methyl-1H-indol-5-yl)-2-morpholinopyrimidine-4-carboxamide]
17 | ≤ 6.00 | COCCN(C)c1cc(N2CCOCC2)cc(C(=O)Nc2cccc(N(C)C)c2)n1 [Compound 157, 6-[(2-Methoxy-ethyl)-methyl-amino]-4-morpholin-4-yl-pyridine-2-carboxylic acid (3-dimethylamino-phenyl)-amide]

Row | pIC50 | SMILES
18 | > 6.00 | Cc1[nH]c2ccc(NC(=O)c3cc(OCCC#N)nc(N4CCOCC4)n3)cc2c1C [Compound 250, 6-(2-cyanoethoxy)-N-(2,3-dimethyl-1H-indol-5-yl)-2-morpholinopyrimidine-4-carboxamide]
19 | ≤ 6.00 | O=C(Nc1cccc([N+](=O)[O-])c1)Nc1cc(OCCN2CCOCC2)nc(N2CCOCC2)n1 [Compound 128, 1-[2-Morpholin-4-yl-6-(2-morpholin-4-yl-ethoxy)-pyrimidin-4-yl]-3-(3-nitro-phenyl)-urea]
20 | > 6.00 | Cc1[nH]c2ccc(NC(=O)c3cc(NCC(=O)N4CCCCC4)nc(N4CCOCC4)n3)cc2c1C [Compound 109, 2-Morpholin-4-yl-6-(2-oxo-2-piperidin-1-yl-ethylamino)-pyrimidine-4-carboxylic acid (2,3-dimethyl-1H-indol-5-yl)-amide]
21 | ≤ 6.00 | O=C(Nc1cccc(-n2ccnc2)c1)c1cc(OCCN2CCOCC2)nc(N2CCOCC2)n1 [Compound 305, 2-Morpholin-4-yl-6-(2-morpholin-4-yl-ethoxy)-pyrimidine-4-carboxylic acid (3-imidazol-1-yl-phenyl)-amide]
22 | > 6.00 | COC(=O)CNc1cc(C(=O)Nc2ccc3[nH]c(C)c(C)c3c2)nc(N2CCOCC2)n1 [Compound 97, [6-(2,3-Dimethyl-1H-indol-5-ylcarbamoyl)-2-morpholin-4-yl-pyrimidin-4-ylamino]-acetic acid methyl ester]
23 | > 6.00 | Cc1[nH]c2ccc(NC(=O)c3cc(CN4CCOCC4)nc(N4CCOCC4)n3)cc2c1C [Compound 259, N-(2,3-dimethyl-1H-indol-5-yl)-2-morpholino-6-(morpholinomethyl)pyrimidine-4-carboxamide]
24 | > 6.00 | CC(=O)N1CCN(c2cc(C(=O)Nc3ccc4[nH]c5c(c4c3)CCCC5)nc(N3CCOCC3)n2)CC1 [Compound 262, 6-(4-acetylpiperazin-1-yl)-2-morpholino-N-(2,3,4,9-tetrahydro-1H-carbazol-6-yl)pyrimidine-4-carboxamide]
25 | > 6.00 | CCc1c[nH]c2ccc(NC(=O)c3cc(N4CCC(O)CC4)cc(N4CCOCC4)n3)cc12 [Compound 174, 4-Hydroxy-6′-morpholin-4-yl-3,4,5,6-tetrahydro-2H-[1,4′]bipyridinyl-2′-carboxylic acid (3-ethyl-1H-indol-5-yl)-amide]
26 | ≤ 6.00 | Cn1c(=O)oc2cc(NC(=O)Nc3cc(OCCN4CCOCC4)nc(N4CCOCC4)n3)ccc21 [Compound 134, 1-(3-Methyl-2-oxo-2,3-dihydro-benzooxazol-6-yl)-3-[2-morpholin-4-yl-6-(2-morpholin-4-yl-ethoxy)-pyrimidin-4-yl]-urea]
27 | > 6.00 | O=C(Nc1ccc(O)cc1)Nc1cc(OCCN2CCOCC2)nc(N2CCOCC2)n1 [Compound 143, 1-(4-Hydroxy-phenyl)-3-[2-morpholin-4-yl-6-(2-morpholin-4-yl-ethoxy)-pyrimidin-4-yl]-urea]
28 | ≤ 6.00 | CCN(CC)Cc1cc(NC(=O)c2cc(N(C)CCOC)nc(N3CCOCC3)n2)ccc1O [Compound 164, 6-[(2-Methoxy-ethyl)-methyl-amino]-2-morpholin-4-yl-pyrimidine-4-carboxylic acid (3-diethylaminomethyl-4-hydroxy-phenyl)-amide]
29 | ≤ 6.00 | COCCN(C)c1cc(C(=O)Nc2ccc(Br)c(C)c2)nc(N2CCOCC2)n1 [Compound 230, 6-[(2-Methoxy-ethyl)-methyl-amino]-2-morpholin-4-yl-pyrimidine-4-carboxylic acid (4-bromo-3-methyl-phenyl)-amide]
30 | > 6.00 | Cc1[nH]c2ccc(NC(=O)c3cc(Nc4ccc5[nH]c(C)c(C)c5c4)nc(N4CCOCC4)n3)cc2c1C [Compound 255, N-(2,3-dimethyl-1H-indol-5-yl)-6-(2,3-dimethyl-1H-indol-5-ylamino)-2-morpholinopyrimidine-4-carboxamide]
31 | ≤ 6.00 | CCn1c2ccccc2c2ccc(NC(=O)c3cc(OCCc4ccccn4)nc(N4CCOCC4)n3)cc21 [Compound 33, 2-Morpholin-4-yl-6-(2-pyridin-2-yl-ethoxy)-pyrimidine-4-carboxylic acid (9-ethyl-9H-carbazol-2-yl)-amide]
32 | > 6.00 | O=C(Nc1ccnc(N2CCCC2)c1)c1cc(OCCN2CCOCC2)nc(N2CCOCC2)n1 [Compound 151, 2-Morpholin-4-yl-6-(2-morpholin-4-yl-ethoxy)-pyrimidine-4-carboxylic acid (2-pyrrolidin-1-yl-pyridin-4-yl)-amide]
33 | ≤ 6.00 | COCCN(C)c1cc(C(=O)Nc2ccc3nc(C)ccc3c2)nc(N2CCOCC2)n1 [Compound 202, 6-((2-methoxyethyl)(methyl)amino)-N-(2-methylquinolin-6-yl)-2-morpholinopyrimidine-4-carboxamide]
34 | ≤ 6.00 | Cn1ncc2ccc(NC(=O)c3cc(OCCN4CCOCC4)nc(N4CCOCC4)n3)cc21 [Compound 216, N-(1-methyl-1H-indazol-6-yl)-2-morpholino-6-(2-morpholinoethoxy)pyrimidine-4-carboxamide]

Row | SMILES | pIC50
35 | Cc1cccc(OC(=O)Nc2cc(OCCc3ccccn3)nc(N3CCOCC3)n2)c1 [Compound 83, [2-Morpholin-4-yl-6-(2-pyridin-2-yl-ethoxy)-pyrimidin-4-yl]-carbamic acid m-tolyl ester] | ≤ 6.00
